# Key:
# [1] = target: T1, Tyrosine-protein phosphatase non-receptor type 11 (Homo sapiens, UniProt Q06124); test: Inhibition of full length wild type recombinant human IRS-1 peptide activated SHP2 (1 to 525 residues) using DIPMUP as substrate preincubated for 30 mins followed by substrate addition and measured after 30 mins by fluorescence based analysis
# T1 sequence (Q06124 whole entry): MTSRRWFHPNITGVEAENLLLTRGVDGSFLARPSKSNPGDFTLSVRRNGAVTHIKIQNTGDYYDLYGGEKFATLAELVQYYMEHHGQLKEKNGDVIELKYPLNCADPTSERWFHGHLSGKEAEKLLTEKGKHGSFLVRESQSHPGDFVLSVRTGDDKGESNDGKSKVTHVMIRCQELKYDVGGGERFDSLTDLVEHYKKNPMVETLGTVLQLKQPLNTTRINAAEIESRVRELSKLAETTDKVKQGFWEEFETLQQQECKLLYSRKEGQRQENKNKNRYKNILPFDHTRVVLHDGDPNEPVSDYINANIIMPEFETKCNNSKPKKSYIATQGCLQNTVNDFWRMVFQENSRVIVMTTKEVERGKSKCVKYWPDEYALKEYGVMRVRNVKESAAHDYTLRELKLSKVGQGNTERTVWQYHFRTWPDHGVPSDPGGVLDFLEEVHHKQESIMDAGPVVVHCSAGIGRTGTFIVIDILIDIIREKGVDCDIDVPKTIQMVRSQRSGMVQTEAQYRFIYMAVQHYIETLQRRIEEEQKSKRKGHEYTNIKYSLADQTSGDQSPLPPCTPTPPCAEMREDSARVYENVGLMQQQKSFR
# [2] = target: Tyrosine-protein phosphatase non-receptor type 6 (Homo sapiens, UniProt P29350); test: Inhibition of full length recombinant human SHP1 (1 to 570 residues) using DIPMUP as substrate preincubated for 30 mins followed by substrate addition and measured after 30 mins by fluorescence based analysis
# MV4-11 [3] = test: Antiproliferative activity against human MV4-11 cells assessed as inhibition of cell growth measured after 72 hrs by CCK8 method; type: functional, cell-based; details: MV4-11, 72 h
# A549 = test: Antiproliferative activity against human A549 cells assessed as inhibition of cell growth measured after 72 hrs by CCK8 method; type: functional, cell-based; details: A549, 72 h
# NCI-H358 = test: Antiproliferative activity against human NCI-H358 cells assessed as inhibition of cell growth measured after 72 hrs by CCK8 method; type: functional, cell-based; details: NCI-H358, 72 h
# [4] = target: T1, Tyrosine-protein phosphatase non-receptor type 11; test: Inhibition of recombinant human SHP2 PTPase activity (219 to 525 residues) using DIPMUP as substrate preincubated for 30 mins followed by substrate addition and measured after 30 mins by fluorescence based analysis
# MDA-MB-468 = test: Antiproliferative activity against human MDA-MB-468 cells assessed as inhibition of cell growth measured after 72 hrs by CCK8 method; type: functional, cell-based; details: MDA-MB-468, 72 h
# MV4-11 [5] = test: Induction of apoptosis in human MV4-11 cells assessed as necrotic cells at 1.25 uM measured after 4 hrs by Annexin V-FITC/7-AAD staining based flow cytometric analysis (reference value: 0.86%); type: functional
# MV4-11 [6] = test: Induction of apoptosis in human MV4-11 cells assessed as early apoptotic cells at 5 uM measured after 1 hrs by Annexin V-FITC/7-AAD staining based flow cytometric analysis (reference value: 4.28%); type: functional
# MV4-11 [7] = test: Induction of apoptosis in human MV4-11 cells assessed as early apoptotic cells at 5 uM measured after 4 hrs by Annexin V-FITC/7-AAD staining based flow cytometric analysis (reference value: 5.97%); type: functional
# MV4-11 [8] = test: Induction of apoptosis in human MV4-11 cells assessed as necrotic cells at 5 uM measured after 2 hrs by Annexin V-FITC/7-AAD staining based flow cytometric analysis (reference value: 0.92%); type: functional
# MV4-11 [9] = test: Induction of apoptosis in human MV4-11 cells assessed as viable cells at 2.5 uM measured after 4 hrs by Annexin V-FITC/7-AAD staining based flow cytometric analysis (reference value: 89.1%); type: functional
# MV4-11 [10] = test: Induction of apoptosis in human MV4-11 cells assessed as late apoptotic cells at 5 uM measured after 4 hrs by Annexin V-FITC/7-AAD staining based flow cytometric analysis (Rvb =4.21%); type: functional
# MV4-11 [11] = test: Induction of apoptosis in human MV4-11 cells assessed as early apoptotic cells at 5 uM measured after 4 hrs by Annexin V-FITC/7-AAD staining based flow cytometric analysis (reference value: 4.28%); type: functional
# MV4-11 [12] = test: Induction of apoptosis in human MV4-11 cells assessed as necrotic cells at 5 uM measured after 4 hrs by Annexin V-FITC/7-AAD staining based flow cytometric analysis (reference value: 0.92%); type: functional
# MV4-11 [13] = test: Induction of apoptosis in human MV4-11 cells assessed as early apoptotic cells at 1.25 uM measured after 4 hrs by Annexin V-FITC/7-AAD staining based flow cytometric analysis (reference value: 5.97%); type: functional
# MV4-11 [14] = test: Induction of apoptosis in human MV4-11 cells assessed as early apoptotic cells at 5 uM measured after 2 hrs by Annexin V-FITC/7-AAD staining based flow cytometric analysis (reference value: 4.28%); type: functional
# MV4-11 [15] = test: Induction of apoptosis in human MV4-11 cells assessed as late apoptotic cells at 5 uM measured after 1 hrs by Annexin V-FITC/7-AAD staining based flow cytometric analysis (reference value: 4.21%); type: functional
# MV4-11 [16] = test: Induction of apoptosis in human MV4-11 cells assessed as late apoptotic cells at 2.5 uM measured after 4 hrs by Annexin V-FITC/7-AAD staining based flow cytometric analysis (reference value: 4.03%); type: functional
# MV4-11 [17] = test: Induction of apoptosis in human MV4-11 cells assessed as late apoptotic cells at 1.25 uM measured after 4 hrs by Annexin V-FITC/7-AAD staining based flow cytometric analysis (reference value: 4.03%); type: functional
# MV4-11 [18] = test: Induction of apoptosis in human MV4-11 cells assessed as viable cells at 5 uM measured after 4 hrs by Annexin V-FITC/7-AAD staining based flow cytometric analysis (reference value: 90.1%); type: functional
# MV4-11 [19] = test: Induction of apoptosis in human MV4-11 cells assessed as viable cells at 5 uM measured after 2 hrs by Annexin V-FITC/7-AAD staining based flow cytometric analysis (reference value: 90.1%); type: functional
# MV4-11 [20] = test: Induction of apoptosis in human MV4-11 cells assessed as necrotic cells at 5 uM measured after 1 hrs by Annexin V-FITC/7-AAD staining based flow cytometric analysis (reference value: 0.92%); type: functional
# MV4-11 [21] = test: Induction of apoptosis in human MV4-11 cells assessed as viable cells at 1.25 uM measured after 4 hrs by Annexin V-FITC/7-AAD staining based flow cytometric analysis (reference value: 89.1%); type: functional
# [22] = Inhibition of full length recombinant human SHP2 E76A mutant (1 to 525 residues) using DIPMUP as substrate preincubated for 30 mins followed by substrate addition and measured after 30 mins by fluorescence based analysis
# MV4-11 [23] = test: Induction of apoptosis in human MV4-11 cells assessed as early apoptotic cells at 2.5 uM measured after 4 hrs by Annexin V-FITC/7-AAD staining based flow cytometric analysis (reference value: 5.97%); type: functional
# MV4-11 [24] = test: Induction of apoptosis in human MV4-11 cells assessed as viable cells at 5 uM measured after 1 hrs by Annexin V-FITC/7-AAD staining based flow cytometric analysis (reference value: 90.1%); type: functional
# MV4-11 [25] = test: Induction of apoptosis in human MV4-11 cells assessed as necrotic cells at 2.5 uM measured after 4 hrs by Annexin V-FITC/7-AAD staining based flow cytometric analysis (reference value: 0.86%); type: functional
# MV4-11 [26] = test: Induction of apoptosis in human MV4-11 cells assessed as viable cells at 5 uM measured after 4 hrs by Annexin V-FITC/7-AAD staining based flow cytometric analysis (reference value: 89.1%); type: functional
# MV4-11 [27] = test: Induction of apoptosis in human MV4-11 cells assessed as necrotic cells at 5 uM measured after 4 hrs by Annexin V-FITC/7-AAD staining based flow cytometric analysis (reference value: 0.86%); type: functional
# MV4-11 [28] = test: Induction of apoptosis in human MV4-11 cells assessed as late apoptotic cells at 5 uM measured after 2 hrs by Annexin V-FITC/7-AAD staining based flow cytometric analysis (reference value: 4.21%); type: functional
# MV4-11 [29] = test: Induction of apoptosis in human MV4-11 cells assessed as late apoptotic cells at 5 uM measured after 4 hrs by Annexin V-FITC/7-AAD staining based flow cytometric analysis (reference value: 4.03%); type: functional
# BEAS-2B = test: Antiproliferative against human BEAS-2B cells assessed as inhibition of cell growth measured after 72 hrs by CCK8 method; type: toxicity, cell-based
# [30] = target: T1, Tyrosine-protein phosphatase non-receptor type 11; test: Inhibition of full length wild type recombinant human SHP2 (1 to 525 residues) using DIPMUP as substrate preincubated for 30 mins followed by substrate addition and measured after 30 mins by fluorescence based analysis
# Tyrosine-protein phosphatase non-receptor type 6, sequence (P29350 whole entry, the tested form may be a part): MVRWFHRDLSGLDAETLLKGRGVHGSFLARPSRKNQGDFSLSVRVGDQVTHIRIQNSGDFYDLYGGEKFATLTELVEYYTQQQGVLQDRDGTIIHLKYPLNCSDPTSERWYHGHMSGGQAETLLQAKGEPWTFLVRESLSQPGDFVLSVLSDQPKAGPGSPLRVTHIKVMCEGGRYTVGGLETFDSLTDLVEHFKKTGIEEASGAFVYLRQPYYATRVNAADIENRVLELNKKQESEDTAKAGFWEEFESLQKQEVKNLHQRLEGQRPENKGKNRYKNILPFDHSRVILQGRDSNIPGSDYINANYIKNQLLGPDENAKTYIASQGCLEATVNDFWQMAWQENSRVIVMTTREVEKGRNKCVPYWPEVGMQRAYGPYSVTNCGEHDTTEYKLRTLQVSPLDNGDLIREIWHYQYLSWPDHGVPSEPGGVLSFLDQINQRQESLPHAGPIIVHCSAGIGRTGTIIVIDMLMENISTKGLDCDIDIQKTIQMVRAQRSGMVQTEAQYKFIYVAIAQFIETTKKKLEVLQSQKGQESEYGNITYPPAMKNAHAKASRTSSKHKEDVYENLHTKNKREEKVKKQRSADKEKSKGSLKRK
smiles,measurement,setting,value
CC1(N)CCN(c2nnc(Sc3cccc4cccnc34)s2)CC1,IC50,[1],4.51 µM
CC1(N)CCN(c2nnc(-c3ccc4ccccc4c3)s2)CC1,IC50,[1],4.35 µM
CC1(CN)CCN(c2nnc(Sc3cccc(Cl)c3Cl)s2)CC1,IC50,[1],1.12 µM
CC1(N)CCN(c2nnc(-c3cccc4ccccc34)s2)CC1,IC50,[2],> 50 µM
same,IC50,MV4-11 [3],3.32 µM
same,IC50,A549,19 µM
same,IC50,NCI-H358,32.9 µM
same,IC50,[4],> 50 µM
same,IC50,[1],4.35 µM
same,IC50,MDA-MB-468,5.42 µM
CC1(N)CCN(c2nnc(Sc3ccc(Cl)cc3Cl)s2)CC1,IC50,[1],5.43 µM
NC1CCN(c2nnc(Sc3cccc(Cl)c3Cl)s2)CC1,IC50,[1],5.53 µM
CC1(N)CCN(c2nnc(Sc3ccc(Cl)c(Cl)c3)s2)CC1,IC50,[1],4.42 µM
CC1(N)CCN(c2nnc(-c3cccc(Cl)c3Cl)s2)CC1,IC50,[1],5.89 µM
CC1(N)CCN(c2cnc(-c3cccc(Cl)c3Cl)c(N)n2)CC1,IC50,[2],> 50 µM
same,Activity,MV4-11 [5],0.66%
same,Activity,MV4-11 [6],4.27%
same,Activity,MV4-11 [7],5%
same,Activity,MV4-11 [8],0.95%
same,Activity,MV4-11 [9],88.2%
same,IC50,MV4-11 [3],2.78 µM
same,Activity,MV4-11 [10],4.58%
same,Activity,MV4-11 [11],6.98%
same,IC50,A549,> 50 µM
same,IC50,NCI-H358,> 50 µM
same,Activity,MV4-11 [12],0.77%
same,Activity,MV4-11 [13],4.94%
same,Activity,MV4-11 [14],4.73%
same,Activity,MV4-11 [15],4.32%
same,Activity,MV4-11 [16],5.06%
same,Activity,MV4-11 [17],4.24%
same,Activity,MV4-11 [18],87.7%
same,Activity,MV4-11 [19],90%
same,Activity,MV4-11 [20],1.05%
same,IC50,MDA-MB-468,31.8 µM
same,Activity,MV4-11 [21],88.1%
same,IC50,[22],1.43 µM
same,Activity,MV4-11 [23],5.95%
same,Activity,MV4-11 [24],90.4%
same,Activity,MV4-11 [25],0.79%
same,Activity,MV4-11 [26],89.3%
same,Activity,MV4-11 [27],0.85%
same,Activity,MV4-11 [28],4.35%
same,Activity,MV4-11 [29],4.89%
CC1(N)CCN(c2nnc(Sc3ccccc3F)s2)CC1,IC50,[1],6.99 µM
NCC1CCN(c2nnc(Sc3cccc(Cl)c3Cl)s2)CC1,IC50,[1],3.82 µM
CC1(N)CCN(c2nnc(Sc3cccc(Cl)c3Cl)s2)CC1,IC50,[2],> 50 µM
same,IC50,MV4-11 [3],2.74 µM
same,IC50,A549,7.21 µM
same,IC50,NCI-H358,8.64 µM
same,Activity,BEAS-2B,Toxic
same,IC50,[30],3.69 µM
same,IC50,[4],> 50 µM
same,IC50,[1],0.97 µM
same,IC50,MDA-MB-468,2.87 µM
COc1ccc2cc(-c3nnc(N4CCC(C)(N)CC4)s3)ccc2c1,IC50,[1],4.95 µM
CC1(N)CCN(c2nnc(Sc3ccccc3Cl)s2)CC1,IC50,[1],3.29 µM
CC1(N)CCN(c2nnc(Sc3ccc4ccccc4c3)s2)CC1,IC50,[2],> 50 µM
same,IC50,MV4-11 [3],3.02 µM
same,IC50,A549,13.8 µM
same,IC50,NCI-H358,13.9 µM
same,Activity,BEAS-2B,Toxic
same,IC50,[30],1.86 µM
same,IC50,[4],> 50 µM
same,IC50,[1],0.72 µM
same,IC50,MDA-MB-468,3.64 µM
